# Assay results published in patent publication US11167006B2 (Shanghai Tianci Life Science Development Co., Ltd., priority 2016, dated 2021).
# Square brackets hold non-standard residues; d marks the D form. Peptide text beside a SMILES is read from it. NMeF = CN[C@@H](Cc1ccccc1)C(=O)O
# How the values were obtained:
# [1] = test system: male mice of Kunming strain; experiment: Analgesic tolerance test (photothermal tail flick); assay type: in vivo, mouse
# Procedure: The mice were injected with the drug in the lateral ventricle of the mice for six consecutive days or in the subcutaneous of the mice for eight consecutive days, and their analgesic tolerance were detected by photothermal tail flick method, and the pharmacological activity of the compounds of the present invention in analgesic tolerance was further explored.
# In male mice of Kunming strain, the drug was injected continuously in the lateral ventricle for six days, once a day, and the effect of continuous injection of drugs on the pain sensation was detected by a photothermal tail flick instrument. The ambient temperature is controlled at 22±1° C., and the experimental animals are free to eat and drink. The test drug was injected into the lateral ventricle of the mouse for 6 consecutive days, 4 μl per injection. The basic tail flick incubation period (3-5 seconds) was measured before the first day of drug injection, and those mice that were too sensitive or dull were discarded. The tail flick incubation period of 5, 10, 15, 20, 30 min after administration on the first and sixth days was recorded in the experiment. To prevent scald on the tail of the mouse, the maximum tail flick incubation period was set as 10 seconds,
# In addition, we further studied the tolerance of subcutaneous administration of compound 9 and morphine in the photothermal tail flick test. The ambient temperature is controlled at 22±1° C., and the experimental animals are free to eat and drink. First, the basic tail flick incubation period (3-5 seconds) of the mice was measured before administration, and then compound 9 or morphine was administered subcutaneously for eight consecutive days. The tail flick incubation period of 10, 15 and 20 minutes after daily administration were recorded. To prevent scald on the tail of the mouse, the maximum tail flick incubation period was set as 10 seconds.
# The experimental data is expressed by MPE (maximum possible effect), MPE (%)=100×[(pain threshold after administration−basal pain threshold)/(10 seconds−basal pain threshold)]. The analgesic tolerance of the drug was compared using the MPE value at the time of maximum analgesic effect of the drug. MPE data was expressed as mean±standard error (Means±S.E.M.). The difference in the analgesic effect of continuous administration in the lateral ventricle of the mice for six days was statistically analyzed by the paired T test, and the difference in the analgesic effect of subcutaneous continuous administration for eight days was analyzed by One-way analysis of variance (one-way ANOVA's Tukey HSD test) for statistics, and ***P<0.001 indicates a significant difference from the analgesic effect of the drug injected on the first day.
# [2] = test system: postoperative pain in mice; experiment: Postoperative pain model (electronic Von Frey); assay type: in vivo, mouse; settings: mechanical pain threshold
# Text: The postoperative pain in mice was detected mainly by an electronic Von Frey tenderness instrument. The basic pain threshold of normal mice was first determined, and then the mice were anesthetized with isoflurane. With the back facing up, the right hind paw of the mouse was fixed and disinfected with iodine solution. A 5 mm longitudinal incision was made with a No. 11 blade at 2 mm from the ankle to expose the plantaris, blood vessels and fascia, and the wound was sutured using a 4-0 surgical suture and a small suture needle, and the wound is coated with erythromycin ointment. The mechanical pain sensitivity value of the surgical foot of the mice was measured 6 h after the surgery, and then compound 9 was intrathecally or intraperitoneally given, and the mechanical pain threshold at different time points after administration were recorded.
# The experimental data were expressed as mean±standard error (Means±S.E.M.), and the data for differences between groups treated with different drug concentrations were analyzed by one-way ANOVA (Bonferroni test in one-way ANOVA) for statistics and analysis, ***P<0.001 represents that there was a significant difference between the MPE value of the drug-treated group and that of the saline group.
# First, the maximum analgesic effect (MPE) was calculated, MPF. […]
# [3] = test system: CFA-induced inflammatory pain in mouse; experiment: Analgesic tolerance and cross-tolerance in CFA-induced inflammatory pain; assay type: in vivo
# Procedure: CFA-induced inflammatory pain in mouse was detected by an electronic Von Frey tenderness instrument, and the basal pain threshold of normal mice was Firstly determined. Then […] of CFA solution was injected subcutaneously into the mouse paw. After 4 days, the mechanical pain sensitivity value of the injected paw of the mouse was measured. And then compound 9 or morphine was injected for 6 consecutive days (lateral ventricle) or 7 consecutive days (subcutaneously), and the mice in morphine group were given compound 9 on day 7 (lateral ventricle) or day 8 (subcutaneous). The mechanical pain thresholds at different time points after administration were recorded.
# (§1) The experimental data were expressed as mean± standard error (Means±S.E.M.). Data for differences between groups treated with the same drug were analyzed by one-way ANOVA (Tukey HSD test of one-way ANOVA) for statistics and analysis, *P<0.05. **P<0.005, ***P<0.001 indicates a significant difference between the mechanical pain threshold of the drug-treated group and the pain threshold after the first day of administration.
# [4] = test system: CCI-induced neuralgia in mouse; experiment: Analgesic tolerance and cross-tolerance in CCI-induced neuralgia; assay type: in vivo
# Procedure: CCI-induced neuralgia in mouse was detected using a PL-200 thermal tingling instrument and an electronic Von Frey tenderness instrument. The thermal pain threshold of one group of normal mice and the mechanical pain threshold of another group of normal mice were first determined. The mice were then anesthetized with sodium pentobarbital 80 mg/kg mouse body weight) and the mice were fixed in the prone position. The right sciatic nerve was exposed and 3 mild ligation rings were made around the sciatic nerve using a 4-0 chromic catgut, 1 mm intervals. The ligation intensity is preferably a slight tremor in the right hind leg. On the 10th day after surgery, the thermal pain sensitivity value and mechanical pain sensitivity value of the right hind paw of the two groups of mice were determined. Compound 9 or morphine was then administered subcutaneously for seven consecutive days, and compound 9 was given to mice in the morphine group on day 8. The thermal tingling and mechanical pain thresholds at different time points after administration were recorded.
# as §1, with “mean±standard” for “mean± standard”, “**P<0.01,” for “**P<0.005,”, “the” for “the mechanical”, “First” for “first”
# [5] = test system: movement coordination of mice; experiment: Movement coordination, RotaRod; assay type: in vivo, mouse; settings: subcutaneous 10 mg/kg
# Procedure: The movement coordination of the mice was detected by a ZB-200 RotaRod System. The mice were first trained for two days at a rotational speed of 16 r/min and continuously trained three times a day. The maximum movement time for each training was set to 300 s, and mice with movement time less than 180 s were excluded after the training. On day 3 of the experiment, mice were tested for movement coordination at 10, 20, 30 and 40 min after subcutaneous administration of compound 9.
# The experimental data were expressed as mean±standard error (Means±S.E.M.), and the differences between drug treatment groups were analyzed by one-way ANOVA (Dunnett test in one-way ANOVA) for data statistics and analysis.
# [6] = subcutaneous, seven consecutive days
structure (smiles),measurement,setting,value
"C[C@@H](NC(=O)[C@@H](N)Cc1ccc(O)cc1)C(=O)NCC(=O)N(C)[C@@H](Cc1ccccc1)C(=O)NCC(=O)N1CCC[C@H]1C(=O)N[C@@H](CCC(N)=O)C(=O)N[C@@H](CCCNC(=N)N)C(=O)N[C@@H](Cc1ccccc1)C(N)=O [Compound 9, Tyr-D-Ala-Gly-NMe-Phe-Gly-Pro-Gln-Arg-Phe-NH2] (H-Y[dA]G[NMeF]GPQRF-NH2)",analgesic tolerance,"[1]; eight consecutive days subcutaneous, 10 mg/kg",not significantly different from that of the first day
same,analgesia effect compared with morphine,"[1]; tail flick, subcutaneous 10 mg/kg",equivalent to that of an equal dose of morphine
same,ED50 value of analgesia for postoperative pain,[2]; intraperitoneal,26.15 (22.62-30.23) mg/kg
same,ED50 value of analgesia for postoperative pain,[2]; intrathecal,8.63 (6.70-11.11) pmol
same,analgesic tolerance on continuous injection,"[3]; mechanical pain, lateral ventricle 6 days or subcutaneous 7 days",not significantly different from that of the first day
same,cross-tolerance between compound 9 and morphine,[3]; morphine-tolerant mice given compound 9 on day 7 (lateral ventricle) or day 8 (subcutaneous),no cross-tolerance
same,cross-tolerance between compound 9 and morphine,[4]; morphine-tolerant mice given compound 9 s.c. on day 8,no cross-tolerance
same,"analgesic tolerance on continuous injection, mechanical pain sensitivity",[4]; [6],not significantly different from that obtained in the first day
same,"analgesic tolerance on continuous injection, thermal sensitivity pain",[4]; [6],not significantly different from that obtained in the first day
same,effect on movement coordination,[5],did not significantly affect movement coordination
